Where two headings read alike, the source gives them in different places.
Key:
bovine serum albumin = target: T1, bovine serum albumin (Bos taurus, UniProt P02769); assay: In vitro inhibition of albumin denaturation; details: heat denaturation, 60 °C 10 min
T1 construct: bovine serum albumin solution (fraction V); purchased Merck and Sigma-Aldrich; host or cells: bovine serum (fraction V)
Procedure, shortened: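 Bovine serum albumin (fraction V, 1% w/v in phosphate buffer, pH 7.4) mixed with test compound, held 15 min at 37 °C, then heated 10 min at 60 °C. After cooling, turbidity read as absorbance at 660 nm against a DMSO blank.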

[1] = In vitro inhibition of linoleic acid lipid peroxidation (AAPH); details: 100 μM; anti-lipid peroxidation
Procedure, shortened: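 Thermal decomposition of AAPH generated alkylperoxy radicals that oxidized sodium linoleate in aqueous dispersion at 37 °C. Formation of conjugated diene hydroperoxides was followed by absorbance at 234 nm, with Trolox as reference.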

[2] = target: T2, soybean lipoxygenase isoenzyme-1 (SLOX-1) (Glycine max, UniProt P08170); assay: In vitro inhibition of soybean lipoxygenase; format: biochemical; details: pH 9.0, read-out: LOX Inh. IC50
T2 construct: purchased Merck and Sigma-Aldrich
T2 sequence (P08170 1-839): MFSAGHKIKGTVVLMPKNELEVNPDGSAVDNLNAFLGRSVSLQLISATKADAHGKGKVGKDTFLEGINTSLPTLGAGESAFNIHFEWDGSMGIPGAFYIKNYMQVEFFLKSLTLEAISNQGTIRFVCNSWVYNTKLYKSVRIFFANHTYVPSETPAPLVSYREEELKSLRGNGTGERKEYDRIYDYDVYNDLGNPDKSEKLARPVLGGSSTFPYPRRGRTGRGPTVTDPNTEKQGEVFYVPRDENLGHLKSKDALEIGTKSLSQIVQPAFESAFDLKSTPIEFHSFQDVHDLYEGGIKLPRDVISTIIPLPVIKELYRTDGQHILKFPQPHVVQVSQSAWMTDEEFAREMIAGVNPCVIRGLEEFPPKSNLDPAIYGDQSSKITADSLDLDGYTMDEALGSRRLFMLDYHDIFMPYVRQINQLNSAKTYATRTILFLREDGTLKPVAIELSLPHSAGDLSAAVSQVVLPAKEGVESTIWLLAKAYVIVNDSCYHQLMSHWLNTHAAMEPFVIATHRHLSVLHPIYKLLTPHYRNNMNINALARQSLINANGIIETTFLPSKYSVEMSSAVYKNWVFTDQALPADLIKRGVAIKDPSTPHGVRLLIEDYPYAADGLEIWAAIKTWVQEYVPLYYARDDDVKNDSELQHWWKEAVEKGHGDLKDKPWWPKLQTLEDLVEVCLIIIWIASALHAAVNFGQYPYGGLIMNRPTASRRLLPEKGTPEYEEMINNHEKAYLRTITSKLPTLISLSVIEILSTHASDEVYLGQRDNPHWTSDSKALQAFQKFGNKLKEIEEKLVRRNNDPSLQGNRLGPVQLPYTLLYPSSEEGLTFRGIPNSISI
Procedure: In vitro anti-LOX activities were evaluated using soybean lipoxygenase isoenzyme-1 (SLOX-1), a commonly used model for mammalian LOXs.
An in vitro study was conducted following a previously reported method. The tested compounds were dissolved in DMSO (100 µM) and incubated at room temperature with 0.1 mL of sodium linoleate as the substrate and 0.2 mL of soybean lipoxygenase solution in Tris-HCl buffer (pH 9.0).

U87 cells = assay: MTT viability assay; format: cell-based; details: Homo sapiens, U-87 MG, 48 h
Procedure: (§1) HeLa, MCF-7, U251, U87, MDA-MB-435, and MDA-MB-231 cancer cell lines were maintained in incubators at 37 °C with 5% CO2 in DMEM medium supplemented with 10% (v/v) fetal bovine serum (FBS) and antibiotics/antimycotics. All cell lines used in this study originate from the Laboratory of Biochemistry, Department of Chemistry, Aristotle University of Thessaloniki. They are low-passage, mycoplasma-free cancer cell lines that have been extensively used over the past 25 years in numerous studies across various fields of cancer research, including drug cytotoxicity testing.
(§2) All cell lines tested were seeded in 96-well plates at a concentration of 6 × 10^3 cells per well, except HeLa, which were seeded at 3 × 10^3 cells per well. The day after, cells were exposed to increasing concentrations of the compounds for 48 h. Cell viability was determined using the 3-(4,5-dimethylthiazol-2-yl)-2,5-diphenyltetrazolium bromide (MTT) assay, a colorimetric assessment of cellular metabolic activity as described previously. Absorbance values from treated samples were normalized to those of untreated controls, which were assigned to a 100% viability value.

MDA-MB-231 cells = assay: MTT viability assay; format: cell-based; details: Homo sapiens, 48 h
Procedure: as §1, §2

MDA-MB-435 cells = assay: MTT viability assay; format: cell-based; details: Homo sapiens, 48 h
Procedure: as §1, §2

U251 cells = assay: MTT viability assay; format: cell-based; details: Homo sapiens, U-251, 48 h
Procedure: as §1, §2

[3] = tested on: multiple cancer cell lines; assay: MTT viability assay, summary over several lines; format: cell-based
Procedure: as §1, §2

T1 sequence (P02769 25-607): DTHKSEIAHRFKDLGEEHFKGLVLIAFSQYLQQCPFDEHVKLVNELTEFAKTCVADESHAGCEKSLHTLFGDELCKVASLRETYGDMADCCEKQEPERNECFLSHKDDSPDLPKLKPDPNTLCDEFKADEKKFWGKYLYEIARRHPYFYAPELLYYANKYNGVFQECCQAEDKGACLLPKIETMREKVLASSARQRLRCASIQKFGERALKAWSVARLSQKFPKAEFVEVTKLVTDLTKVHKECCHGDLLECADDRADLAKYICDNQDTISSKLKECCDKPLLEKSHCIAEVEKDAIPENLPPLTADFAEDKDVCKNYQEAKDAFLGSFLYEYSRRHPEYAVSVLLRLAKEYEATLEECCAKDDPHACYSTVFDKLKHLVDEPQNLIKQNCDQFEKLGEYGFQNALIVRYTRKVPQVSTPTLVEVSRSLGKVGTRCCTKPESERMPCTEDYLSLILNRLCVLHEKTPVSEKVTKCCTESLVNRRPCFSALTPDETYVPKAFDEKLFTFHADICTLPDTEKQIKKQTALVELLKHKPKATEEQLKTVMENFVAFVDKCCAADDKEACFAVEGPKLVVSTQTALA

Albumin (inhibition of albumin denaturation) (bovine serum albumin)	IC50 [2] [µM]	EC50 (U87 cells) [µM]	EC50 (MDA-MB-231 cells) [µM]	EC50 (MDA-MB-435 cells) [µM]	EC50 (U251 cells) [µM]	EC50 ([3]; U251, U87, and MDA-MB-231, read-out: EC50 values in the remaining cell lines) [µM]	EC50 ([3]; read-out: EC50 values across multiple cancer cell lines) [µM]	Structure (SMILES)	AAPH Inh. at 100 μΜ [1] [%]
no	10	–	–	–	–	–	–	C/C(=N\O)c1ccc(NC(=O)COC(=O)/C=C/c2cccs2)cc1 [Compound 6c, 2-((4-((E)-1-(Hydroxyimino)ethyl)phenyl)amino)-2-oxoethyl (E)-3-(thiophen-2-yl)acrylate]	4
no	60	45.4	42.8	52.9	40.9	40.9 to 45.4	36 to 45	C/C(=N\O)c1ccc(NC(=O)COC(=O)/C(=C/c2cccs2)c2ccccc2)cc1 [Compound 6i, 2-((4-((E)-1-(Hydroxyimino)ethyl)phenyl)amino)-2-oxoethyl (E)-2-phenyl-3-(thiophen-2-yl)acrylate]	28
no	65	–	–	–	–	–	–	O=C(/C=C/c1cc2ccccc2s1)OCc1c(-c2ccccc2)no[n+]1[O-] [Compound 9e, (E)-3-(((3-(Benzo[b]thiophen-2-yl)acryloyl)oxy)methyl)-4-phenyl-1,2,5-oxadiazole 2-oxide]	67
